The text below walks through data of PubChem BioAssay AID180 (DTP/NCI, 2004).

Structures are written as SMILES. Values joined by “and” are separate entries in the source; they are usually repeats but may differ in a detail not shown here. Equal entries are not always repeated.

The assay deals with BDF1 mice, Adenocarcinoma 755 s.c., tumor weight T/C. Description: NCI In Vivo Anticancer Drug Screen. Data for tumor model Adenocarcinoma 755 (subcutaneous) in B6D2F1 (BDF1) mice. The note with it: endpoint: mean tumor weight, higher = larger tumour. The essentials:
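Values express treated (T) relative to vehicle-dosed control (C) animals, based on survival or tumour size measured after compound treatment of mice bearing a transplanted tumour.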

Where [1] appears, read: dose: 25.0 mg/kg/injection, schedule: Q01DX011 (ip), vehicle: methylcellulose (MC).
The mark [2] stands for this setting: dose: 75.0 mg/kg/injection, schedule: Q01DX011 (ip), vehicle: methylcellulose (MC).
Where [3] appears, read: dose: 225.0 mg/kg/injection, schedule: Q01DX011 (ip), vehicle: methylcellulose (MC).
[4] abbreviates: dose: 6.0 mg/kg/injection, schedule: Q01DX011 (ip), vehicle: carboxymethylcellulose (CMC).
The mark [5] stands for this setting: dose: 6.25 mg/kg/injection, schedule: Q01DX011 (ip), vehicle: carboxymethylcellulose (CMC).
The mark [6] stands for this setting: dose: 12.5 mg/kg/injection, schedule: Q01DX011 (ip), vehicle: carboxymethylcellulose (CMC).

For `O=c1cn[nH]c(=O)[nH]1`, the T/C by setting is: (dose: 110.1 mg/kg/injection, schedule: Q01DX011 (ip), vehicle: carboxymethylcellulose (CMC)) 104 % of control; (dose: 125.0 mg/kg/injection, schedule: Q01DX011 (ip), vehicle: carboxymethylcellulose (CMC)) 66 % of control; (dose: 220.2 mg/kg/injection, schedule: Q01DX011 (ip), vehicle: carboxymethylcellulose (CMC)) 80 % of control; (dose: 250.0 mg/kg/injection, schedule: Q01DX011 (ip), vehicle: carboxymethylcellulose (CMC)) 107 % of control; (dose: 440.4 mg/kg/injection, schedule: Q01DX011 (ip), vehicle: carboxymethylcellulose (CMC)) 84 % of control; (dose: 500.0 mg/kg/injection, schedule: Q01DX011 (ip), vehicle: carboxymethylcellulose (CMC)) 87 % of control. The T/C reads like this: (dose: 880.8 mg/kg/injection, schedule: Q01DX011 (ip), vehicle: carboxymethylcellulose (CMC)) 77 % of control; (dose: 1000.0 mg/kg/injection, schedule: Q01DX011 (ip), vehicle: carboxymethylcellulose (CMC)) 80 % of control.

As to `COC1C(OC(=O)/C=C/C=C/C=C/C=C\C(=O)O)CCC2(CO2)C1C1(C)OC1CC=C(C)C` (stereo not drawn), the T/C (dose: 10.0 mg/kg/injection, schedule: Q01DX011 (ip), vehicle: other) is 90 % of control; the T/C (dose: 20.0 mg/kg/injection, schedule: Q01DX011 (ip), vehicle: other) is 98 % of control; the T/C (dose: 40.0 mg/kg/injection, schedule: Q01DX011 (ip), vehicle: other) is 64 % of control; the T/C (dose: 80.0 mg/kg/injection, schedule: Q01DX011 (ip), vehicle: other) was 82 % of control; the T/C (dose: 160.0 mg/kg/injection, schedule: Q01DX011 (ip), vehicle: other) was 74 % of control.

As for `CC1CCc2ccccc2N1C(=O)CCCl` (stereo not drawn), the T/C was 48 % of control under setting [1], 82 % of control under setting [2] and 50 % of control under setting [3].

Consider `O=P(N1CCCC1)(N1CC1)N1CC1`, for which the T/C is 94 % of control and 75 % of control (dose: 0.2 mg/kg/injection, schedule: Q01DX011 (ip), vehicle: saline); 110 % of control (dose: 0.25 mg/kg/injection, schedule: Q01DX011 (ip), vehicle: carboxymethylcellulose (CMC)); 54 % of control and 79 % of control (dose: 0.5 mg/kg/injection, schedule: Q01DX011 (ip), vehicle: saline); 42 % of control (dose: 1.0 mg/kg/injection, schedule: Q01DX011 (ip), vehicle: carboxymethylcellulose (CMC)); 8 % of control and 21 % of control (dose: 1.0 mg/kg/injection, schedule: Q01DX011 (ip), vehicle: saline); 46 % of control (dose: 2.0 mg/kg/injection, schedule: Q01DX011 (ip), vehicle: carboxymethylcellulose (CMC)). The T/C is, setting by setting: (dose: 2.0 mg/kg/injection, schedule: Q01DX011 (ip), vehicle: saline) 3 % of control; (dose: 4.0 mg/kg/injection, schedule: Q01DX011 (ip), vehicle: carboxymethylcellulose (CMC)) 23 % of control; under setting [4], 8 % of control; (dose: 8.0 mg/kg/injection, schedule: Q01DX011 (ip), vehicle: carboxymethylcellulose (CMC)) 11 % of control; (dose: 12.0 mg/kg/injection, schedule: Q01DX011 (ip), vehicle: saline) 3 % of control.

As to `CCCCn1cnc2c(SCc3ccccn3)nc(N)nc21`, the T/C by setting is: (dose: 3.6 mg/kg/injection, schedule: Q01DX011 (ip), vehicle: methylcellulose (MC)) 6 % of control; (dose: 7.25 mg/kg/injection, schedule: Q01DX011 (ip), vehicle: methylcellulose (MC)) 2 % of control.

On to `CCN(CC)CCOc1ccc(C2=C(c3ccccc3)CCc3cc(OC)ccc32)cc1`, for which the T/C (dose: 25.0 mg/kg/injection, schedule: Q01DX011 (sc), vehicle: steriod suspending solution) is 48 % of control and the T/C (dose: 50.0 mg/kg/injection, schedule: Q01DX011 (sc), vehicle: steriod suspending solution) is 32 % of control.

In the case of `CS(=O)(=O)OCCC(=O)N1CCC(CCC2CCN(C(=O)CCOS(C)(=O)=O)CC2)CC1`, the T/C by setting is: under setting [1], 79 % of control; under setting [2], 63 % of control; under setting [3], 81 % of control.

As for `CN1CCN(CCCN2c3ccccc3Sc3ccc(C(F)(F)F)cc32)CC1`, the T/C (dose: 22.0 mg/kg/injection, schedule: Q01DX011 (ip), vehicle: saline) is 32 % of control.

In the case of `CC1(C)N=C(N)N=C(N)N1c1cccc(Cl)c1`, the T/C (dose: 1.15 mg/kg/injection, schedule: Q01DX011 (ip), vehicle: carboxymethylcellulose (CMC)) is 89 % of control; the T/C (dose: 2.3 mg/kg/injection, schedule: Q01DX011 (ip), vehicle: carboxymethylcellulose (CMC)) is 72 % of control; the T/C (dose: 4.6 mg/kg/injection, schedule: Q01DX011 (ip), vehicle: carboxymethylcellulose (CMC)) is 121 % of control; the T/C (dose: 9.2 mg/kg/injection, schedule: Q01DX011 (ip), vehicle: carboxymethylcellulose (CMC)) is 88 % of control.

For `CS(=O)(=O)OCC1OC(OCc2ccccc2)CC1O` (stereo not drawn), where the note is “dose: 25.0 mg/kg/injection, schedule: Q01DX011 (ip), vehicle: saline”, the T/C is 102 % of control.

Turning to `OCCOCCN1CCN(CCCN2c3ccccc3Sc3ccc(C(F)(F)F)cc32)CC1`, the T/C was 54 % of control and 75 % of control (dose: 5.0 mg/kg/injection, schedule: Q01DX011 (ip), vehicle: saline); 12 % of control and 29 % of control (dose: 20.0 mg/kg/injection, schedule: Q01DX011 (ip), vehicle: saline).

Regarding `CCC(C)Cn1cnc2c(Sc3c([N+](=O)[O-])ncn3C)nc(N)nc21` (stereo not drawn), the T/C is, setting by setting: (dose: 11.0 mg/kg/injection, schedule: Q01DX011 (ip), vehicle: methylcellulose (MC)) 58 % of control; (dose: 33.0 mg/kg/injection, schedule: Q01DX011 (ip), vehicle: methylcellulose (MC)) 10 % of control; (dose: 100.0 mg/kg/injection, schedule: Q01DX011 (ip), vehicle: methylcellulose (MC)) 1 % of control.

Turning to `CC(=O)Nc1nc(Cl)c2ncn(C3CCCO3)c2n1` (stereo not drawn), the T/C was 106 % of control (dose: 30.0 mg/kg/injection, schedule: Q01DX011 (ip), vehicle: carboxymethylcellulose (CMC)); 38 % of control (dose: 60.0 mg/kg/injection, schedule: Q01DX011 (ip), vehicle: carboxymethylcellulose (CMC)); 19 % of control and 42 % of control (dose: 240.0 mg/kg/injection, schedule: Q01DX011 (ip), vehicle: carboxymethylcellulose (CMC)).

Consider `N#[N+]c1n[nH]nc1C(N)=O`, for which the T/C under setting [5] is 94 % of control and the T/C under setting [6] is 63 % of control.

Take `CC(=O)Nc1nc(SCc2ccccc2)c2ncn(C(C)=O)c2n1`: the T/C is 53 % of control (dose: 7.5 mg/kg/injection, schedule: Q01DX011 (ip), vehicle: methylcellulose (MC)); 4 % of control (dose: 15.0 mg/kg/injection, schedule: Q01DX011 (ip), vehicle: methylcellulose (MC)); 2 % of control (dose: 30.0 mg/kg/injection, schedule: Q01DX011 (ip), vehicle: methylcellulose (MC)).

As for `CCCCCCC(=O)NC1=C(N2CC2)C(=O)C(NC(=O)CCCCCC)=C(N2CC2)C1=O`, the T/C is 48 % of control (dose: 11.25 mg/kg/injection, schedule: Q01DX011 (ip), vehicle: carboxymethylcellulose (CMC)) and 4 % of control (dose: 45.0 mg/kg/injection, schedule: Q01DX011 (ip), vehicle: carboxymethylcellulose (CMC)).

Consider `COc1ccc(C[n+]2cc([O-])on2)cc1`, for which the T/C runs as follows: (dose: 0.39 mg/kg/injection, schedule: Q01DX011 (ip), vehicle: carboxymethylcellulose (CMC)) 75 % of control; (dose: 0.78 mg/kg/injection, schedule: Q01DX011 (ip), vehicle: carboxymethylcellulose (CMC)) 80 % of control; (dose: 1.56 mg/kg/injection, schedule: Q01DX011 (ip), vehicle: carboxymethylcellulose (CMC)) 63 % of control; (dose: 3.0 mg/kg/injection, schedule: Q01DX011 (ip), vehicle: carboxymethylcellulose (CMC)) 70 % of control; under setting [4], 89 % of control; under setting [5], 57 % of control. Besides, the T/C was 52 % of control (dose: 12.0 mg/kg/injection, schedule: Q01DX011 (ip), vehicle: carboxymethylcellulose (CMC)); 51 % of control under setting [6]; 67 % of control (dose: 24.0 mg/kg/injection, schedule: Q01DX011 (ip), vehicle: carboxymethylcellulose (CMC)).

In the case of `Cc1ccc2ccccc2c1CSc1ncnc2nc[nH]c12`, the T/C was 38 % of control (dose: 10.0 mg/kg/injection, schedule: Q01DX011 (ip), vehicle: methylcellulose (MC)); 40 % of control (dose: 20.0 mg/kg/injection, schedule: Q01DX011 (ip), vehicle: methylcellulose (MC)); 11 % of control (dose: 40.0 mg/kg/injection, schedule: Q01DX011 (ip), vehicle: methylcellulose (MC)); 9 % of control (dose: 80.0 mg/kg/injection, schedule: Q01DX011 (ip), vehicle: methylcellulose (MC)).
